In US7618990B2, “Oxazolidone derivatives as PR modulators” (Wyeth, priority 2006, dated 2009) one finds melting point, Ki and IC50 data, which are given here for 21 molecules.

The target in series [1] is T1, progesterone receptor (PR) (Homo sapiens, UniProt P06401).
T1 construct: in live, intact (whole) cells using the human breast carcinoma T47D cell line; endogenous in cells; host or cells: T47D human breast carcinoma cells
T1 sequence (P06401 1-933): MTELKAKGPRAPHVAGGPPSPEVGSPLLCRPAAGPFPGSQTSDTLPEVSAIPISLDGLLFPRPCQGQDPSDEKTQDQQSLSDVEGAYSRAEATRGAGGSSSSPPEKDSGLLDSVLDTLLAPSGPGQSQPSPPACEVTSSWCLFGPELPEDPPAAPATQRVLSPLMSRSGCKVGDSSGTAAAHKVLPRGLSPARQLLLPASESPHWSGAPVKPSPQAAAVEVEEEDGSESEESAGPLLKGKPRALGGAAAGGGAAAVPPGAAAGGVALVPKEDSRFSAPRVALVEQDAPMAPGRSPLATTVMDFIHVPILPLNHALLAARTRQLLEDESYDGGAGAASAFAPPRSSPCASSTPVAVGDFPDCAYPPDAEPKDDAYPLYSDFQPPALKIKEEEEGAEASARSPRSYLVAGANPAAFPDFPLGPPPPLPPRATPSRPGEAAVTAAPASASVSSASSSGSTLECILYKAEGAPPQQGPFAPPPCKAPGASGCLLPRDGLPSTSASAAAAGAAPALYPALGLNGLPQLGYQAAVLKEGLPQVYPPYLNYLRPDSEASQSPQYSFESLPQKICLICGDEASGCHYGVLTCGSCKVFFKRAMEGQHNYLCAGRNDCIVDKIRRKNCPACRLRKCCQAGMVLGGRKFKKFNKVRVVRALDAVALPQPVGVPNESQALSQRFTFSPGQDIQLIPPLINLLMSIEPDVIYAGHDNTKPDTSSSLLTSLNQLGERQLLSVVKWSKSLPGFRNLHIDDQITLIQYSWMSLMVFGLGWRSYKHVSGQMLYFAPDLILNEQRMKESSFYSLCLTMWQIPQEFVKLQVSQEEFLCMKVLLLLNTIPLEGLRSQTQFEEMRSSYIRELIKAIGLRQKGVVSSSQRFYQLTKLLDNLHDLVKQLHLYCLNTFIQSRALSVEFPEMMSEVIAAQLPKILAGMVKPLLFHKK
Nature of the series: Progesterone receptor whole cell competition binding assay using T47D cells. The following applies: intact T47D cells, 3 nM 3H-progesterone, 3 h at 37° C. How it is done:
(2) Progesterone Receptor Whole Cell Competition Binding Assay Using T47D Cells
PURPOSE: To evaluate the progesterone receptor (PR) binding activity of progestins or antiprogestins in live, intact (whole) cells using the human breast carcinoma T47D cell line and ^3H-progesterone as the labeled ligand.
Culture Medium: • 5% RC: phenol red free DMEM:F12 (1:1) (GIBCO, BRL) supplemented with 5% (v/v) charcoal stripped fetal bovine serum (not heat-inactivated), 100 U/mL penicillin, 100 μg/mL streptomycin, and 2 mM the GlutaMax™ reagent (GIBCO, BRL). • 10% RC: Same as above supplemented with 10% (v/v) FBS. • ^3H-Progesterone: Perkin Elmer Life Science, cat# NET-381 (typically around 102 Ci/mmol)
T47D cells were maintained in 10% RC media at 37° C. in a 5% CO2/humidified atmosphere and were split twice weekly for proper response. Cells were plated in 10% RC the day before binding assay at 50,000 cells per well in the white, clear bottom plates purchased through VWR or Perkin Elmer.
Cells plated the day prior to the assay in white clear bottom plates were used. A master compound plate was set up containing control and test compounds at 20× final desired concentration for the competition binding. A typical dose range of 20× concentrations were (in nM); 200,000; 20,000; 6000; 2000; 600; 200; 20; and 2. Final concentrations were (in nM); 10,000; 1000; 300; 100; 30; 10; 1; 0.1. Control compounds were typically run 10-fold lower than this and include a 0, or vehicle, control well. A stock of 60 nM ^3H-progesterone (20×) were also prepared at a volume needed of 10 μL per well.
Media on cells were replaced with 180 μL of 5% RC. Ten microliters (10 μL) of 60 nM ^3H-progesterone (for final concentration of 3 nM) was added immediately, followed by 10 μL of 20× test or control compounds. Compounds were incubated for 3 h at 37° C. (A time course study found no difference between 2 and 4 h incubation.)
Following incubation, media was carefully removed and cells were washed 3× with 200 μL 5% RC each wash. Fifty microliters of liquid scintillation cocktail was added and the plates were shaken vigorously for a minimum of 15 min. Plates were read on the Wallac Microbeta® 1450 plate reader.
Square root-transformed data were used for analysis of variance and calculation of IC50. SAS software (SAS Institute, Inc.) was used for all the statistical analysis.
Progesterone was used as a reference progestin and RU486 as a reference antiprogestin.

The subject of series [2] is alkaline phosphatase activity in T47D cells. Nature of the series: Effects of progestins and antiprogestins on alkaline phosphatase activity in T47D cells (antagonist mode). The note with it: Homo sapiens, in the presence of 1 nM progesterone, 24 h, read-out: T47D Alkaline Phosphatase Activity IC50 (nM) or % inhibition. In kind it is cell-based.

Structures are written as SMILES.

In turn, `CC[C@@H]1COC(=O)N1c1nc(-c2ccc(Br)cc2)cs1` [Example 9, (4R)-3-[4-(4-Bromophenyl)-1,3-thiazol-2-yl]-4-ethyl-1,3-oxazolidin-2-one] displayed a melting point of 134 to 135 °C. In series [1], the Ki stood at 62.1 nM. The 50% inhibitory concentration (IC50) in series [2] is 32.9 nM.
For `CC[C@@H]1COC(=O)N1c1nc(-c2ccc(C#N)cc2)cs1` [Example 10, 4-{2-[(4R)-4-Ethyl-2-oxo-1,3-oxazolidin-3-yl]-1,3-thiazol-4-yl}benzonitrile] the same measures were 153 to 157 °C, 23.3 nM and 12.8 nM.
`CCC[C@H]1COC(=O)N1c1nc(-c2ccc(C#N)cc2)cs1` [Example 23, 4-{2-[(4S)-2-oxo-4-propyl-1,3-oxazolidin-3-yl]-1,3-thiazol-4-yl}benzonitrile] gave a melting point of 132 to 135 °C. Also, in series [1], affinity was put at a Ki of 41.2 nM. The IC50 in series [2] is 28.1 nM.
Take `O=C1OCC2(CCCC2)N1c1nc(-c2ccc(Br)cc2)cs1` [Example 34, 1-[4-(4-Bromophenyl)-1,3-thiazol-2-yl]-3-oxa-1-azaspiro[4.4]nonan-2-one]: the melting point fell in the range of 138 to 139 °C. In series [1], the Ki stood at 529 nM. Further, the IC50 in series [2] amounted to 95.3 nM.
`O=C1OC[C@@H](c2ccccc2)N1c1nc(-c2ccc(Br)cc2)cs1` [Example 35, (4R)-3-[4-(4-Bromophenyl)-1,3-thiazol-2-yl]-4-phenyl-1,3-oxazolidin-2-one] gave a melting point of 218 to 220 °C. The molecule further registered a Ki in series [1] of 713 nM. Also, the IC50 in series [2] was 204 nM.
Molecule `O=C1OC[C@@H](Cc2ccccc2)N1c1nc(-c2ccc(Br)cc2)cs1` [Example 36, (4R)-4-Benzyl-3-[4-(4-bromophenyl)-1,3-thiazol-2-yl]-1,3-oxazolidin-2-one] registered a melting point of 177 to 179 °C. For the same molecule, the affinity in series [1], expressed as Ki, was 968 nM. The IC50 in series [2] came out at 346 nM.
In turn, `CC(C)C[C@H]1COC(=O)N1c1nc(-c2ccc(Br)cc2)cs1` [Example 37, (4S)-3-[4-(4-Bromophenyl)-1,3-thiazol-2-yl]-4-isobutyl-1,3-oxazolidin-2-one] came in with a melting point of 144 to 146 °C. In series [1], this molecule gave a Ki of 566 nM. The IC50 in series [2] stood at 359 nM.
On the same counts, the results for `CC(C)C1COC(=O)N1c1nc(-c2ccc(Br)cc2)cs1` (stereo not drawn) [Example 38, 3-[4-(4-Bromophenyl)-1,3-thiazol-2-yl]-4-isopropyl-1,3-oxazolidin-2-one] are 174 to 176 °C, 108 nM and 75.6 nM.
For `CCCC1COC(=O)N1c1nc(-c2ccc(C#N)cc2)cs1` (stereo not drawn) [Example 40, 4-[2-(2-Oxo-4-propyl-1,3-oxazolidin-3-yl)-1,3-thiazol-4-yl]benzonitrile] the same measures were 132 to 134 °C, 42 nM and 9.9 nM.
On the same counts, the results for `CC1CN(c2nc(-c3ccc(C#N)cc3)cs2)C(=O)O1` (stereo not drawn) [Example 41, 4-[2-(5-Methyl-2-oxo-1,3-oxazolidin-3-yl)-1,3-thiazol-4-yl]benzonitrile] are 214 to 216 °C, 284 nM and 48.3 nM.
On to `CCC1CN(c2nc(-c3ccc(C#N)cc3)cs2)C(=O)O1` (stereo not drawn) [Example 42, 4-[2-(5-Ethyl-2-oxo-1,3-oxazolidin-3-yl)-1,3-thiazol-4-yl]benzonitrile], for which the melting point was 168 to 170 °C. The same molecule returned a Ki in series [1] of 700 nM. In addition, in series [2], the IC50 came to 117 nM.
For `CCCCC1COC(=O)N1c1nc(-c2ccc(C#N)cc2)cs1` (stereo not drawn) [Example 48, 4-[2-(4-Butyl-2-oxo-1,3-oxazolidin-3-yl)-1,3-thiazol-4-yl]benzonitrile], the melting point lay in the range of 134 to 137 °C. In series [1], this molecule yielded a Ki of 128 nM. Further, the IC50 in series [2] worked out at 23.3 nM.
The molecule `CCC1COC(=O)N1c1nc(-c2ccc(Br)cc2)cs1` (stereo not drawn) [Example 49, 3-[4-(4-Bromophenyl)-1,3-thiazol-2-yl]-4-ethyl-1,3-oxazolidin-2-one] gave a melting point of 148.5 °C. This molecule showed a Ki in series [1] of 68 nM. Also, in series [2], the IC50 was found to be 39 nM.
As for `CC1COC(=O)N1c1nc(-c2ccc(Br)cc2)cs1` (stereo not drawn) [Example 50, 3-[4-(4-Bromophenyl)-1,3-thiazol-2-yl]-4-methyl-1,3-oxazolidin-2-one], the melting point lay in the range of 189 to 190 °C. In series [1], the Ki is 36.6 nM. For the same molecule, the IC50 in series [2] was determined as 17.7 nM.
On the same counts, the results for `CC1COC(=O)N1c1nc(-c2ccc(C#N)cc2)cs1` (stereo not drawn) [Example 51, 4-[2-(4-Methyl-2-oxo-1,3-oxazolidin-3-yl)-1,3-thiazol-4-yl]benzonitrile] are 215 to 216 °C, 42.6 nM and 16.1 nM.
Consider `CC1(C)COC(=O)N1c1nc(-c2ccc(C#N)cc2)c(F)s1` [Example 58, 4-[2-(4,4-dimethyl-2-oxo-1,3-oxazolidin-3-yl)-5-fluoro-1,3-thiazol-4-yl]benzonitrile], for which the melting point lay within 177 to 178 °C. In series [1], this molecule came in with a Ki of 16.1 nM. For the same molecule, the IC50 in series [2] turned out to be 4 nM.
For `O=C1OCC(C(F)(F)F)N1c1nc(-c2ccc(Br)cc2)cs1` (stereo not drawn) [Example 64, 3-[4-(4-Bromophenyl)-1,3-thiazol-2-yl]-4-(trifluoromethyl)-1,3-oxazolidin-2-one] the same measures were 154 to 156 °C, 234 nM and 291 nM.
`N#Cc1ccc(-c2csc(N3C(=O)OC[C@H]3C(F)(F)F)n2)cc1` [Example 65, 4-{2-[(4S)-2-Oxo-4-(trifluoromethyl)-1,3-oxazolidin-3-yl]-1,3-thiazol-4-yl}benzonitrile] displayed a melting point of 208 to 209 °C. The same molecule yielded an inhibition constant (Ki) in series [1] of 60.3 nM. The half-inhibitory concentration (IC50) in series [2] came to 43.2 nM.
`N#Cc1ccc(-c2csc(N3C(=O)OC[C@@H]3C(F)(F)F)n2)cc1` [Example 66, 4-{2-[(4R)-2-oxo-4-(trifluoromethyl)-1,3-oxazolidin-3-yl]-1,3-thiazol-4-yl}benzonitrile]: the melting point was in the range of 208 to 209 °C. Moreover, in series [1], the Ki is 212 nM. Also, the IC50 in series [2] stood at 482 nM.
`O=C1OC[C@@H](CF)N1c1nc(-c2ccc(Br)cc2)cs1` [Example 73, (4S)-3-[4-(4-Bromophenyl)-1,3-thiazol-2-yl]-4-(fluoromethyl)-1,3-oxazolidin-2-one]: the melting point was 148 to 150 °C. The same molecule yielded a Ki in series [1] of 31.5 nM. Besides, the half-maximal inhibitory concentration (IC50) in series [2] turned out to be 21.4 nM.
On the same counts, the results for `N#Cc1ccc(-c2csc(N3C(=O)OC[C@H]3CF)n2)cc1` [Example 74, 4-{2-[(4S)-4-(Fluoromethyl)-2-oxo-1,3-oxazolidin-3-yl]-1,3-thiazol-4-yl}benzonitrile] are 195 to 196 °C, 45.1 nM and 19.8 nM.

In general, melting point refers to the temperature, or range, at which the solid turns liquid. The term Ki denotes a dissociation constant, usually derived from enzyme kinetics or from competition with a known ligand. Usually IC50 stands for the concentration needed to halve the response being measured.
